Experimental data taken from ChEMBL document CHEMBL2424617, “Microwave-assisted synthesis and anticonvulsant activity of 5,6-bisaryl-1,2,4-triazine-3-thiol derivatives” (Med Chem Res, 2013).
Active and inactive are the calls of the source. No cut-off for these calls is given here.

Key:
[1] = tested on: Mus musculus; experiment: Anticonvulsant activity in NMRI mouse assessed as […] of PTZ required to induce seizure at 100 mg/kg, ip after 30 mins (reference value: 31.5 +/- 4.4 mg/kg); format: functional
[2] = tested on: Mus musculus; experiment: Neurotoxicity in NMRI mouse assessed as impairment of motor coordination at 100 mg/kg after 30 mins by chimney test; format: toxicity, organism-based; parameters: dose 100 mg/kg; conditions: in vivo, 0.5 h
[3] = tested on: Mus musculus; experiment: Neurotoxicity in NMRI mouse assessed as impairment of motor coordination at 100 mg/kg after 30 mins by rotarod test; format: toxicity, organism-based; parameters: dose 100 mg/kg; conditions: in vivo, 0.5 h
[4] = tested on: Mus musculus; experiment: Anticonvulsant activity in NMRI mouse assessed as protection against electroshock-induced seizure at 100 mg/kg after 30 mins; format: functional
[5] = tested on: Mus musculus; experiment: Anticonvulsant activity in NMRI mouse assessed as protection against electroshock-induced seizure at 12.5 mg/kg, ip after 30 mins; format: functional; conditions: route intraperitoneal
[6] = tested on: Mus musculus; experiment: Anticonvulsant activity in NMRI mouse assessed as […] of PTZ required to induce seizure at 12.5 mg/kg, ip after 30 mins (reference value: 31.5 +/- 4.4 mg/kg); format: functional
[7] = tested on: Mus musculus; experiment: Neurotoxicity in NMRI mouse assessed as impairment of motor coordination at 12.5 mg/kg, ip after 30 mins by chimney test; format: toxicity, organism-based; parameters: dose 12.5 mg/kg, route intraperitoneal; conditions: in vivo, 0.5 h
[8] = tested on: Mus musculus; experiment: Neurotoxicity in NMRI mouse assessed as impairment of motor coordination at 12.5 mg/kg, ip after 30 mins by rotarod test; format: toxicity, organism-based; parameters: dose 12.5 mg/kg, route intraperitoneal; conditions: in vivo, 0.5 h

Structure (SMILES) | Activity [1] [mg/kg] | Activity [2] | Activity [3] | Activity [4] | Activity [5] [%] | Activity [6] [mg/kg] | Activity [7] | Activity [8]
Sc1nnc(-c2cccs2)c(-c2cccs2)n1 | 24.42 | Non-toxic | Non-toxic |  |  |  |  | 
CSc1nnc(-c2ccc(F)cc2)c(-c2ccc(F)cc2)n1 |  | 33% | Non-toxic |  |  |  |  | 
CSc1nnc(-c2ccc(C)cc2)c(-c2ccc(C)cc2)n1 | 39.4 | Non-toxic | Non-toxic |  |  |  |  | 
COc1ccc(-c2nnc(SC)nc2-c2ccc(OC)cc2)cc1 | 41.4 | Non-toxic | Non-toxic |  |  |  |  | 
Clc1ccc(-c2nnc(SCc3ccncc3)nc2-c2ccc(Cl)cc2)cc1 | 43 | Non-toxic |  |  |  |  |  | 
Cc1ccc(-c2nnc(SCc3ccncc3)nc2-c2ccc(C)cc2)cc1 | 49.4 | Non-toxic | Non-toxic | 100% |  |  |  | 
COc1ccc(-c2nnc(SCc3cccnc3)nc2-c2ccc(OC)cc2)cc1 | 41.5 | Non-toxic | Non-toxic |  |  |  |  | 
Cc1ccc(-c2nnc(SCc3cccnc3)nc2-c2ccc(C)cc2)cc1 | 47 | Non-toxic | Non-toxic |  |  |  |  | 
COc1ccc(-c2nnc(S)nc2-c2ccc(OC)cc2)cc1 |  | Non-toxic | Non-toxic | inactive |  |  |  | 
CSc1nnc(-c2cccs2)c(-c2cccs2)n1 | 38.23 | Non-toxic | Non-toxic |  |  |  |  | 
Nc1nnc(-c2cccc(Cl)c2Cl)c(N)n1 [LAMOTRIGINE] |  |  |  |  | 100 | 72.9 | Non-toxic | Non-toxic
Sc1nnc(-c2ccc(Cl)cc2)c(-c2ccc(Cl)cc2)n1 |  | Non-toxic | Non-toxic |  |  |  |  | 
Cc1ccc(-c2nnc(S)nc2-c2ccc(C)cc2)cc1 | 40.4 | Non-toxic |  |  |  |  |  | 
